According to US11530458B2, “Methods of using multi-ligand metal complexes to perform oxidative catalytic pretreatment of lignocellulosic biomass” (Board of Trustees of Michigan State University, priority 2014, dated 2022):

Legend:
[1] = Metal-catalyzed AOP pretreatment of chelated woody biomass, then enzymatic hydrolysis; settings: [metal]:[bpy]=2 mM:4 mM; versus Mn-AOP and Fe-AOP; FIG. 30
Protocol: Three different pretreatment strategies were tested on each of the biomass samples: alkali only, alkaline hydrogen peroxide (AOP), and copper-catalyzed AOP (Cu-AOP). In all cases, 0.51 g of biomass (approximately 0.5 g dry basis; about 3 to about 5% moisture content) was pretreated in a total of 5.0 mL aqueous solution (10% solids loading). For alkali-only pretreatment, the solution contained 50 mg NaOH (100 mg NaOH/g biomass), while AOP pretreatment also contained 150 μL of 30% H2O2 (100 mg H2O2/g biomass). […]
Following pretreatment, 0.5 mL of 1 M citric acid buffer (pH 4.8) was added to the pretreated slurry, and the slurry was slowly titrated with 72% (w/w) H2SO4 to adjust the pH to 5.0 prior to enzymatic hydrolysis. […] The protein concentrations of the stock enzyme cocktails were quantified as y described in X. Gao, R. Kumar, S. Singh, B. A. Simmons, V. Balan, B. E. Dale and C. […]
Following enzymatic hydrolysis, the solid and liquid phases were separated by centrifugation, and the amount of glucose and xylose released into the aqueous phase was quantified by HPLC (Agilent 1260 Series equipped with an Aminex® HPX-87H column operating at 65° C., a mobile phase of 0.05 M H2SO4, a flow rate of 0.6 mL/min, and detection using an Agilent 1260 infinity refractive index detector). […]

[2] = Catalyst screening with multi-ligand metal complexes: enzymatic digestibility of hybrid poplar after AOP pretreatment; set-up: species or system Populus nigra var. charkoviensis×caudina cv. NE-19; settings: FIG. 1
Protocol: Metal complexes (hereinafter “metal catalysts”) containing multiple or single metal coordinating ligands were tested. The metal catalysts tested included copper catalysts having a second metal coordinating ligand substituted for at least a portion of the 2,2′-bipyridine. These catalysts were evaluated for their performance in further enhancing the efficacy of AOP pretreatment of hybrid poplar. Ligands involved in the screening included histidine, glycine, di(2-picolyl)amine (dipica, 97%), 1,4,7-triazacyclononane (TACN, 95%), 2,2′;6′,2″-terpyridine (Terpy, 98%), 1,10-phenanthroline (phen, ≥99%), and tris(2-pyridylmethyl)amine (TPA, 98%, obtained from Sigma-Aldrich and Acros Organics/0). An iron 2,2′-bipyridine complex was prepared by mixing ferrous sulfate heptahydrate with 2,2′-bipyridine in an aqueous solution, and this iron complex was also tested.
The hybrid poplar (Populus nigra var. charkoviensis×caudina cv. NE-19) used in this testing was grown at the University of Wisconsin Arlington Agricultural Research Station. The hybrid poplar was harvested in 2011 and debarked using methods known in the art at the University of Wisconsin, Madison to produce heartwood and sap wood (different parts of the wood stem which can be differentiated via chemical testing). […]

[3] = Catalytic AOP pretreatment of alkali-extracted switchgrass, then enzymatic hydrolysis (glucose yield); set-up: species or system Panicum virgatum; settings: for Glucose yield of enzymatic hydrolysis (% of theoretical maximum): 24 hr AOP pretreatment of AESG, catalyst concentration per table
Protocol: Screening of various metal ligand complexes (hereinafter “catalysts”) was performed via catalytic alkaline oxidative pretreatment (AOP) pretreatment of alkali-extracted switchgrass (AESG). To prepare AESG, 80 grams of untreated switchgrass (Panicum virgatum, cv. Cave-In-Rock, hammer milled to pass a 5-mm screen, and stored at a moisture content of approximately 5%) was soaked in an aqueous solution of 5 g/L NaOH at 80° C. for 2 hrs. The weight-to-volume (w/v) solids loading of switchgrass during alkaline extraction was 10% (e.g., 10 g of biomass in 100 mL NaOH solution). […] The washed solids was recovered as AESG and air-dried for over 7 days.
[Al(III)(3,5-^tBu2-salophen)Cl] [3,5-^tBu2-salophen=N,N′-bis(3,5-di-tert-butylsalicylidene)-1,2-phenylenediamine], [Zn(II)(BPPA)Cl]Cl [BPPA=N,N-bis(6-pivaloylamido-2-pyridylmethyl)-N-(2-pyridylmethyl)amine], and [NEt4][Fe(III)(bpb)Cl2]
To study the effect of catalytic AOP pretreatment on AESG, pretreatment was performed in a 100 g/L aqueous suspension of AESG in the presence of each catalyst. […] After 24 hrs of incubation at 30° C. without mixing, the pretreated switchgrass slurry was washed using deionized water to remove the alkaline phosphate buffer.
The enzymatic digestibility of AOP-pretreated switchgrass was estimated by the yield of glucose during the enzymatic hydrolysis of AOP pretreated AESG. The percentage yield was calculated on the basis of the glucan content in AESG prior to catalytic AOP pretreatment.
For enzymatic hydrolysis, 500 μL of 1 M Na-citrate buffer (pH 5) and 40 μL of 10 mM tetracycline (Sigma-Aldrich) were added to AOP-AESG that was not dried after catalytic AOP pretreatment. Accellerase 1500 (42 FPU/mL; Danisco-Genencor, Palo Alto, Calif.) was added at 50 mg protein per gram of glucan in AESG. The total volume of the mixture (solid and liquid) was adjusted with deionized water to reach a 5% (w/v) solids concentration, and the samples were incubated at 50° C. during hydrolysis.

Substance: copper(II) 2,2′-bipyridine complex [Cu(bpy), L/M = 3:1]
- Enzymatic digestibility after metal-catalyzed AOP [1]: significantly higher enzymatic digestibility than the addition of either Mn(bpy) or Fe(bpy) complexes
- Performance in enhancing AOP pretreatment of hybrid poplar (enzymatic digestibility) [2]: superior performance among all candidates
- Glucose yield of enzymatic hydrolysis (% of theoretical maximum) ([3]; pH 10, 24 hrs hydrolysis): 38.67 ± 0.3 % of theoretical maximum
- Glucose yield of enzymatic hydrolysis (% of theoretical maximum) ([3]; pH 10, 72 hrs hydrolysis): 42.98 ± 0.88 % of theoretical maximum
- Glucose yield of enzymatic hydrolysis (% of theoretical maximum) ([3]; pH 11, 24 hrs hydrolysis): 41.65 ± 0.14 % of theoretical maximum
- Glucose yield of enzymatic hydrolysis (% of theoretical maximum) ([3]; pH 11, 72 hrs hydrolysis): 44.97 ± 0.42 % of theoretical maximum
- Improvement in enzymatic digestibility of AOP pretreated AESG ([3]; pH 11.5, versus no catalyst): very moderate improvement
- Glucose yield of enzymatic hydrolysis (% of theoretical maximum) ([3]; pH 13, 24 hrs hydrolysis): 41.56 ± 0.06 % of theoretical maximum
